Test results from patent publication US10669255B2, “Pyrrole derivatives” (HUA MEDICINE (SHANGHAI) LTD., priority 2016, dated 2020).
pIC50: −log10 of the molar value.

Each compound was assayed against T1, recombinant rat mGluR5 (Rattus norvegicus, UniProt P31424) (assay: Functional calcium flux assay (FLIPR), antagonism of glutamate-evoked [Ca2+]i increase). Conditions: HEK293 cells stably expressing recombinant rat mGluR5; Fluo-8; 15 min incubation of test compound, then submaximal glutamate.
T1 construct: expressed in transfected cells
T1 sequence (P31424 21-1203): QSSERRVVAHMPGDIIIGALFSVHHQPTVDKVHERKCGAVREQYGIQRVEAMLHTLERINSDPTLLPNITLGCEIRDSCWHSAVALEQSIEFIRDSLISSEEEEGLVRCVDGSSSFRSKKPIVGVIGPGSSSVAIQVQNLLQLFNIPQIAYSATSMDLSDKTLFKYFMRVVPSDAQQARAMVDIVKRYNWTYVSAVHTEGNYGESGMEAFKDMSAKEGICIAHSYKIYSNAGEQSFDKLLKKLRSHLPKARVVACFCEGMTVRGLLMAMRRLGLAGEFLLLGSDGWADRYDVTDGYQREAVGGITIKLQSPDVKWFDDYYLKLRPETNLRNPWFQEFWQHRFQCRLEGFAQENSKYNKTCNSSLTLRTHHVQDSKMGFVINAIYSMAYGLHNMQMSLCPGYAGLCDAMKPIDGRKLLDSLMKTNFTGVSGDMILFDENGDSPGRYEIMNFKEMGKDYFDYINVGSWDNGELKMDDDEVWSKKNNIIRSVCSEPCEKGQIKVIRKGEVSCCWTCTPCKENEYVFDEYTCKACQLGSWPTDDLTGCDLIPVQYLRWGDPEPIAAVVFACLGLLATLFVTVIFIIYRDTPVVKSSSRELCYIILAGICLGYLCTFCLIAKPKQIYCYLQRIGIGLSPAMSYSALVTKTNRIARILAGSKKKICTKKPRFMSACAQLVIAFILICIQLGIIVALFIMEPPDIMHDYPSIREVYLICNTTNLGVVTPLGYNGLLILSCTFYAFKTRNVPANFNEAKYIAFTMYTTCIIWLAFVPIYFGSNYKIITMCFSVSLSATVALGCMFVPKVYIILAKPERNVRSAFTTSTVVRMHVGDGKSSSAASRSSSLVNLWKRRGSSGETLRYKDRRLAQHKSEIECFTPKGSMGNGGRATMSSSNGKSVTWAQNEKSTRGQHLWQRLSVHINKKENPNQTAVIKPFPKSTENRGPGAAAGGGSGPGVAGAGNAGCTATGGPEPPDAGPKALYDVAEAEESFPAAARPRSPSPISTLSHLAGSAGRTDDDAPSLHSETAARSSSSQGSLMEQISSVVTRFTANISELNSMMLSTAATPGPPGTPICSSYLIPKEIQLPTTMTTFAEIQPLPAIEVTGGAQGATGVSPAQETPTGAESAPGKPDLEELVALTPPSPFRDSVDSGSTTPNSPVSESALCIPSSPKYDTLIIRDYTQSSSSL
Format: cell-based
Procedure: Functional Calcium Flux Assay Methodology
For functional assays, HEK293 cells stably expressing recombinant rat mGluR5 were seeded in 384-well plates and dye loaded using Fluo-8. Cells were then washed to remove the un-incorporated dye. Antagonist evaluation was performed following a 15 min incubation of the test compound followed by the addition of submaximal concentration of glutamate. Intracellular calcium ([Ca^2+]i) measurements were performed using a fluorometric imaging plate reader (FLIPR, Molecular Devices). The glutamate-evoked increase in [Ca^2+]i in the presence of the test compounds was compared to the response to glutamate alone (the positive control). Antagonist inhibition curves were fitted with a 4-parameter logistic equation giving IC50 values, and Hill coefficients using an iterative nonlinear curve fitting algorithm.
The tables below provide IC50 data in this assay. In the activity column, A=IC50 >1,000 and ≤5,000 nM; B=IC50>500 and ≤1,000 nM and C=IC50≤500 nM.

Question: `N#Cc1cc(I)cc(-n2cc(C#Cc3ccccn3)c3ccccc32)c1` [Example Compound 1, 3-iodo-5-(3-(pyridin-2-ylethynyl)-1H-indol-1-yl)benzonitrile] was tested. Which pIC50 did it give?
Answer: Its pIC50 is ≥ 6.30.

Question: How did the pIC50 turn out when `N#Cc1cc(F)cc(-n2cc(C#Cc3ccccn3)c3ccccc32)c1` [Example Compound 2, 3-fluoro-5-(3-(pyridin-2-ylethynyl)-1H-indol-1-yl)benzonitrile] was run?
Answer: The pIC50 was ≥ 6.30.

Question: How did the pIC50 turn out when `Fc1ccc(-n2cc(C#Cc3ccccn3)c3ccccc32)cc1` [Example Compound 3, 1-(4-fluorophenyl)-3-(pyridin-2-ylethynyl)-1H-indole] was run?
Answer: The pIC50 was ≥ 6.30.

Question: How did the pIC50 turn out when `Fc1ccc(-n2cc(C#Cc3ncccn3)c3ccccc32)cc1` [Example Compound 4, 1-(4-fluorophenyl)-3-(pyrimidin-2-ylethynyl)-1H-indole] was run?
Answer: The pIC50 was ≥ 6.30.

Question: `N#Cc1cc(F)cc(-n2cc(F)c(C#Cc3ccccn3)c2)c1` [Example Compound 5, 3-fluoro-5-(3-fluoro-4-(pyridin-2-ylethynyl)-1H-pyrrol-1-yl)benzonitrile] was tested. Which pIC50 did it give?
Answer: The pIC50 was ≥ 6.30.

Question: `N#Cc1cc(F)cc(-n2ccc(C#Cc3ccccn3)c2)c1` [Example Compound 6, 3-fluoro-5-(3-(pyridin-2-ylethynyl)-1H-pyrrol-1-yl)benzonitrile] was tested. Which pIC50 did it give?
Answer: The pIC50 was ≥ 6.30.

Question: With `Fc1ccc(-n2ccc(C#Cc3ccccc3)c2)cc1` [Example Compound 7, 1-(4-fluorophenyl)-3-(phenylethynyl)-1H-pyrrole] as the compound, how does the pIC50 read?
Answer: Its pIC50 is ≥ 6.30.

Question: `Cc1cc(C#Cc2ccccn2)c(C)n1-c1ccc(OC(F)(F)F)cc1` [Example Compound 8, 2-((2,5-dimethyl-1-(4-(trifluoromethoxy)phenyl)-1H-pyrrol-3-yl)ethynyl)pyridine] was tested. Which pIC50 did it give?
Answer: The pIC50 was ≥ 6.30.

Question: With `Cc1cc(C#Cc2ncccn2)c(C)n1-c1ccc(OC(F)(F)F)cc1` [Example Compound 9, 2-((2,5-dimethyl-1-(4-(trifluoromethoxy)phenyl)-1H-pyrrol-3-yl)ethynyl)pyrimidine] as the compound, how does the pIC50 read?
Answer: The pIC50 was ≥ 6.30.

Question: `Cc1cc(C#Cc2ccncc2)c(C)n1-c1ccc(OC(F)(F)F)cc1` [Example Compound 10, 4-((2,5-dimethyl-1-(4-(trifluoromethoxy)phenyl)-1H-pyrrol-3-yl)ethynyl)pyridine] was tested. Which pIC50 did it give?
Answer: Its pIC50 is 5.30 to 6.00.
